Starred links: 1 amine or outer side, 2 acyl side, 3 side chain; linkers in the order of their positions; H or OH if unused. Residues, ends and D or L forms follow the SMILES beside them. Groups on a side chain read outwards from the residue. *: point of attachment. Glutaryl = O=C(CCCC(=O)[*:2])[*:1]; NHNH2 = NN*
Test: MTS cell viability of transfected cells, A549
Type: cell-based
Conditions: human; A549 cells transfected with Cas9-RNP complexes; myristoleyl, palmitoleyl or petroselinyl aldehydes
Method: For Cas9-RNP delivery, the efficiency on GFP silencing was around 60-70% when complexing the protein with an amphiphile comprising 7.3(Leu-His) and myristoleyl, palmitoleyl or petroselinyl aldehydes. Cells transfected with the above-indicated complexes present a cell viability higher than 80%. Viability assays were performed employing the CellTiter 96© Aqueous Non-Radioactive Cell Proliferation Assay (MTS) and following the manufacturer's instructions. Briefly, 20 μL of the combined MTS/PMS solution were added into each well of the 96-well assay plate containing cells in culture medium (100 μL). The plate was incubated 4 hours at 37° C. and 5% CO2 in a humidified atmosphere. Then, absorbance (490 nm) was recorded in an INFINITE M1000 PRO (TECAN).

SMILES: CC(=O)N[C@@H](CCCNC(=N)N)C(=O)N[C@@H](CCCCNC(=O)CCCC(=O)NN)C(=O)N[C@@H](Cc1c[nH]cn1)C(=O)N[C@@H](CCCNC(=N)N)C(=O)N[C@@H](CCCCNC(=O)CCCC(=O)NN)C(=O)N[C@@H](CCCCNC(=O)CCCC(=O)NN)C(=O)N[C@@H](Cc1c[nH]cn1)C(N)=O [7.3(L-H), Ac-RK*HRK*K*H-NH2] (Ac-RK([Glutaryl-NHNH2])HRK([Glutaryl-NHNH2])K([Glutaryl-NHNH2])H-NH2)
- viability: > 80%

Source: patent publication US20250304623A1, “PEPTIDES FOR INTRACELLULAR DELIVERY” (UNIVERSIDADE DE SANTIAGO DE COMPOSTELA, priority 2022, published 2025)
